The source of these data is US8211854B2, “Methods for inhibiting protein kinases” (Schering Corporation, priority 2005, dated 2012).

Like-named read-outs stand apart in the source and are kept apart here.

The target in this assay is T1, His-CHK1 (Homo sapiens, UniProt O14757).
T1 construct: fused on or other part: His tag
T1 sequence (O14757 1-265 limits assumed): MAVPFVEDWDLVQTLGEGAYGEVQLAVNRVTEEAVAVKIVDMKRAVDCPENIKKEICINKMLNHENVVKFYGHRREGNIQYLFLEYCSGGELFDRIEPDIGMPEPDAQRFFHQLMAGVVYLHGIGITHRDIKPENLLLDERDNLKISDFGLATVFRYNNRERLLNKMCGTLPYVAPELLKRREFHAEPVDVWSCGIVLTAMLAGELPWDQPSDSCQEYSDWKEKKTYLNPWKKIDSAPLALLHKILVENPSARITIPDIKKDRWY
Briefly: CHK1 SPA Assay. It is filed as biochemical.

The mark [1] stands for this setting: read-out: CHK1 inhibitory activity (IC50).
[2] abbreviates: recombinant His-CHK1, biotinylated CDC25C peptide substrate, 1 μM ATP, 2 hours at room temperature, read-out: CHK1 inhibitory activity (IC50).

In the case of `Cn1cc(-c2cnn3c(N)c(I)c(C4CCCNC4)nc23)cn1` (stereo not drawn), the IC50 under setting [1] stood at 0.003 µM.
For `Cc1cc(Nc2cc(C3CCCNC3)nc3c(-c4cnn(C)c4)cnn23)sn1` (stereo not drawn), 0.007 µM corresponded to half-maximal inhibition (IC50).
Take `N#Cc1ccc(-c2cnn3c(N)cc(C4CCCNC4)nc23)cc1` (stereo not drawn): the IC50 under setting [2] amounted to 0.12 µM.
On the same count and under the same terms, the result for `CN(C)c1cccc(Nc2cc(C3CCCNC3)nc3c(-c4cnn(C)c4)cnn23)c1` (stereo not drawn) reads 0.25 µM; that for `Cc1cc(Nc2cc(C3CCCNC3)nc3c(-c4coc(C#N)c4)cnn23)sn1` (stereo not drawn), 0.007 µM.
Turning to `Cn1cc(-c2cnn3c(N)c(Br)c(CC4CCCNC4)nc23)cn1` (stereo not drawn), it took 0.009 µM to reach half-maximal inhibition (IC50).
As for `Cn1cc(-c2cnn3c(N)cc(CC4CCNCC4)nc23)cn1`, the IC50 under setting [2] was 0.4 µM.
On the same count and under the same terms, next, `Cn1cc(-c2cnn3c(Nc4ccncc4)cc(C4CCCNC4)nc23)cn1` (stereo not drawn): 0.1 µM; `N#Cc1cc(-c2cnn3c(N)c(Br)c(C4CCCNC4)nc23)co1` (stereo not drawn): 0.004 µM.
The same measure, in the same setting: next, `Cc1cc(Nc2cc(N3CC[C@@H](N)C3)nc3c(-c4cnn(C)c4)cnn23)sn1`: 0.05 µM.
On to `Cn1cc(-c2cnn3c(Nc4ccc(-n5ccnc5)cc4)cc(C4CCCNC4)nc23)cn1` (stereo not drawn), for which the IC50 under setting [2] was found to be 0.06 µM.
Still for that read-out and setting: next, `Cn1cc(-c2cnn3c(Nc4cccc(S(N)(=O)=O)c4)cc(C4CCCNC4)nc23)cn1` (stereo not drawn): 0.39 µM; `Cn1cc(-c2cnn3c(N)c(Br)c(C4CNCCS4)nc23)cn1` (stereo not drawn): 0.006 µM.
Same read-out and setting: next, `Nc1c(Br)c(N2CC[C@H](N)C2)nc2c(-c3ccsc3)cnn12`: 0.43 µM; `Nc1c(Br)c(C2CCCNC2)nc2c(-c3ccoc3)cnn12` (stereo not drawn): 0.025 µM; `Cn1cc(-c2cnn3c(N)c(Br)c(CCCN)nc23)cn1`: 0.011 µM.
As for `CC#Cc1c(C2CCCNC2)nc2c(-c3cnn(C)c3)cnn2c1N` (stereo not drawn), under setting [1], the IC50 came to 0.045 µM.
Take `Cn1cc(-c2cnn3c(N)c(-c4cccs4)c(C4CCCNC4)nc23)cn1` (stereo not drawn): under setting [2], the IC50 came out at 0.09 µM.

A word on the IC50: it is the concentration at which inhibition is half-maximal.
